Key:
[1] = system: Collagen-Induced Aggregation In Rabbit Platelets; experiment: Inhibition of collagen-induced aggregation in rabbit platelets (aggregometer, PRP); assay type: cell-based; conditions: Oryctolagus cuniculus, Platelet, PRP 450,000 platelets/mm^3; for inhibition at 100 µM: concentration 10^-4 M; for inhibition at 10 µM: concentration 10^-5 M; for inhibition at 1 µM: concentration 10^-6 M; for inhibition at 0.01 µM: concentration 10^-8 M
Description: (§1) The inhibitory activity of some compounds of this invention and the method for determination of the activity are described hereinafter in greater detail.
(§2) The aggregation inhibitory activity was determined using an AG-II type aggregometer (made by Bryston Manufacturing Co.). A blood sample was withdrawn from rabbits as a mixture of sodium citrate and whole blood in a proportion of 1:9 by volume and centrifuged at 1000 rpm for 10 minutes to obtain a platelet rich plasma (PRP). The resulting PRP was separated, and the remaining blood sample was further centrifuged at 3000 rpm for 15 minutes to obtain a platelet poor plasma (PPP).
(§3) The number of platelets in the PRP was counted in accordance with the Brecher-Clonkite Method, and the PRP was diluted with the PPP to prepare a PRP sample containing platelets in an amount of 300,000/mm^3 for an adenosine diphosphate (ADP)-induced aggregation test and a PRP sample containing platelets in an amount of 450,000/mm^3 for a collagen-induced aggregation test.
(§4) 0.01 ml of a solution of a test compound having a predetermined concentration (as shown in the Tables below) was then added to 0.6 ml of the PRP sample obtained above and the mixture was incubated at a temperature of 37° C for 1 minute. Then 0.07 ml of an ADP or collagen solution was added to the mixture. The mixture was then subjected to a transmittance determination and changes in the transmittance of the mixture were recorded using aggregometer at a stirrer rotation rate of 1100 rpm. In this test, Owren Veronal buffer (pH 7.35) was used for the preparation of solutions of ADP, collgen and the test compounds. ADP was adjusted to a concentration of 7.5 × 10^-5 M, and the collagen solution was prepared by triturating 100 mg of collagen with 5 ml of the above buffer and the supernatant obtained was used as a collagen inducer. Adenosine and acetylsalicylic acid were used as controls for the ADP-induced aggregation test and the collagen-induced aggregation test, respectively. The aggregation inhibitory activity was determined in terms of the percent inhibition (%) with respect to the aggregation ratio of controls. The aggregation ratio can be calculated by the following equation: [formula] Wherein:
(§5) "a" is the optical density of the PRP,
(§6) "b" is the optical density of the PRP having incorporated therein a test compound and an aggregation inducer, and
(§7) "c" is the optical density of the PPP.

[2] = system: ADP-Induced Aggregation In Rabbit Platelets; experiment: Inhibition of ADP-induced aggregation in rabbit platelets (aggregometer, PRP); assay type: cell-based; conditions: Oryctolagus cuniculus, Platelet, ADP 7.5 × 10^-5 M, PRP 300,000 platelets/mm^3; for inhibition at 100 µM: concentration 10^-4 M; for inhibition at 1 µM: concentration 10^-6 M; for inhibition at 0.01 µM: concentration 10^-8 M; for inhibition at 10 µM: concentration 10^-5 M
Description: as §1, §2, §3, §4, §5, §6, §7

## O=C1CCc2c(cccc2OC[C@H](O)CO)N1 [drawing 48]
[1]; table 5
  inhibition at 100 µM: 95%
  inhibition at 10 µM: 3%
  inhibition at 1 µM: 3%
  inhibition at 0.01 µM: 0%

## Nc1ncnc2c1ncn2[C@@H]1O[C@H](CO)[C@@H](O)[C@H]1O [Adenosine, reference compound]
[2]; table 3
  inhibition at 100 µM: 70%
  inhibition at 1 µM: 47%
  inhibition at 0.01 µM: 5%
[2]; table 4
  inhibition at 100 µM: 92%
  inhibition at 10 µM: 74%
  inhibition at 1 µM: 63%
  inhibition at 0.01 µM: 15%

## OCC(O)COc1cccc2c(O)nccc12 (centres unmarked)
[2]; table 3
  inhibition at 100 µM: 2%
  inhibition at 1 µM: 6%
  inhibition at 0.01 µM: 0%

## CC(=O)Oc1ccccc1C(=O)O [Acetylsalicylic Acid, reference compound]
[1]; table 5
  inhibition at 100 µM: 100%
  inhibition at 10 µM: 12%
  inhibition at 1 µM: 8%

## O=C1CCc2cccc(OCC(O)CO)c2N1 (centres unmarked) [drawing 37]
[1]; table 2
  inhibition at 100 µM: 25%
  inhibition at 1 µM: 7%
  inhibition at 0.01 µM: 21%

## C=CCN1C(=O)CCc2c(OCC(O)CO)cccc21 (centres unmarked) [drawing 34]
[1]; table 2
  inhibition at 100 µM: 0%
  inhibition at 1 µM: 0%
  inhibition at 0.01 µM: 0%

## O=C1CCc2cc(OCC(O)CO)ccc2N1 (centres unmarked) [drawing 41]
[2]; table 3
  inhibition at 100 µM: 100%
  inhibition at 1 µM: 9%
  inhibition at 0.01 µM: 26%

## O=C1CCc2cc(OCC(O)CO)ccc2N1 (centres unmarked) [drawing 35]
[1]; table 2
  inhibition at 100 µM: 100%
  inhibition at 1 µM: 9%
  inhibition at 0.01 µM: 26%

## O=C1CCc2c(cccc2OCC(O)CO)N1 (centres unmarked) [drawing 32]
[1]; table 2
  inhibition at 100 µM: 100%
  inhibition at 1 µM: 11%
  inhibition at 0.01 µM: 8%

## CN1C(=O)CCc2c(OCC(O)CO)cccc21 (centres unmarked) [drawing 39]
[2]; table 3
  inhibition at 100 µM: 7%
  inhibition at 1 µM: 13%
  inhibition at 0.01 µM: 0%

## C=CCN1C(=O)CCc2c(OCC(O)CO)cccc21 (centres unmarked) [drawing 40]
[2]; table 3
  inhibition at 100 µM: 0%
  inhibition at 1 µM: 0%
  inhibition at 0.01 µM: 0%

## O=C1CCc2cccc(OCC(O)CO)c2N1 (centres unmarked) [drawing 43]
[2]; table 3
  inhibition at 100 µM: 25%
  inhibition at 1 µM: 7%
  inhibition at 0.01 µM: 21%

## O=C1CCc2c(cccc2OCC(O)CO)N1 (centres unmarked) [drawing 47]
[2]; table 4
  inhibition at 100 µM: 51%
  inhibition at 10 µM: 18%
  inhibition at 1 µM: 18%
  inhibition at 0.01 µM: 15%

## O=C1CCc2ccc(OCC(O)CO)cc2N1 (centres unmarked) [drawing 42]
[2]; table 3
  inhibition at 100 µM: 13%
  inhibition at 1 µM: 18%
  inhibition at 0.01 µM: 4%

## O=C1CCc2c(cccc2OCC(O)CO)N1 (centres unmarked) [drawing 49]
[1]; table 5
  inhibition at 100 µM: 95%
  inhibition at 10 µM: 17%
  inhibition at 1 µM: 7%
  inhibition at 0.01 µM: 3%

## O=C1CCc2c(cccc2OCC(O)CO)N1 (centres unmarked) [drawing 38]
[2]; table 3
  inhibition at 100 µM: 21%
  inhibition at 1 µM: 17%
  inhibition at 0.01 µM: 21%

## CN1C(=O)CCc2c(OCC(O)CO)cccc21 (centres unmarked) [drawing 33]
[1]; table 2
  inhibition at 100 µM: 7%
  inhibition at 1 µM: 13%
  inhibition at 0.01 µM: 0%

## O=C1CCc2ccc(OCC(O)CO)cc2N1 (centres unmarked) [drawing 36]
[1]; table 2
  inhibition at 100 µM: 13%
  inhibition at 1 µM: 18%
  inhibition at 0.01 µM: 4%

## O=C1CCc2c(cccc2OC[C@H](O)CO)N1 [drawing 46]
[2]; table 4
  inhibition at 100 µM: 49%
  inhibition at 10 µM: 16%
  inhibition at 1 µM: 8%
  inhibition at 0.01 µM: 0%
